One data set deals with S. aureus Mu3 (MRSA). The data set is described as follows: microbe, parasite or virus in culture. The conditions noted are these: Mu3. The method, then:
(§1) (10−4 M final concentrations). At selected time intervals, 100 μl of reaction mixture was collected, quenched by 200 μl 95% EtOH, and adjusted at pH 2 to prevent peptide adsorption to serum proteins. […] Supernatants were analyzed by RP-HPLC on an Xbridge C18 column with a linear gradient of water, 0.08% TFA, and acetonitrile with 1% TFA. HPLC peak areas were used to calculate the percentages of intact compound remaining at the various time points. MIC and MBC values were determined in triplicate in many ESKAPE clinical isolates, including a dozen MDR S. aureus, by the broth microdilution method. Peptidomimetics and antibiotics were assayed in a concentration range of 1 to 128 μM. The bacterial inoculum (5 × 10^5 colony-forming units [CFUs]/well) was prepared in MHB or CAMHB (150 μl). A Biotek Synergy 2 spectrophotometer was used to record the results after 18–20 h incubation at 35°C (±2°C). […] After every hour of culture for 4 h, serial dilutions were plated on BHI plates and incubated overnight at 37°C, and then the CFUs were counted and expressed as log CFU/ml. Phosphate-buffered saline (PBS)-exposed S. aureus MRSA was included as a control.

For a further data set, the system named is S. aureus N315 (MRSA). The data set is described as follows: microbe, parasite or virus in culture. The conditions noted are these: N315. The method, then: as §1
The next data set concerns S. aureus Newman. The data set is described as follows: microbe, parasite or virus in culture. The conditions noted are these: Newman. The method, then:
as §1

The test system of a further data set is S. aureus MRSA. Description: Time-kill assay at 30-fold MIC. As to conditions: 4 h. The class given is cell-based. How it is done: as §1
A short description of data set [1]: Stability in mouse serum (half-life). The class given is in vitro ADME. As to conditions: 25% mouse serum, pre-incubated 15 min at 37°C, peptide 10^−4 M, RP-HPLC peak areas, mean of biological triplicates. The method, then: as §1
Supplementary file pbio.3000337.s013.docx: S7 Table Peptide half-lives in human and mouse sera. […] Peptide amounts and half-lives were determined by HPLC. Experiments were conducted on 25% human or mouse sera. Values are shown in minutes. The mean values correspond to biological triplicates. HPLC, high pressure liquid chromatography. (DOCX) Click here for additional data file.

In another data set the test system is Escherichia coli 146. As to conditions: 146. An outline of the steps: (§2)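 Broth microdilution in MHB or CAMHB with an inoculum of 5 × 10^5 CFU/well; compounds were tested from 1 to 128 μM. Plates were incubated 18–20 h at 35°C (±2°C) and read spectrophotometrically. MIC and MBC were determined in triplicate.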
In the next data set the test system is Escherichia coli 066. As to conditions: 066. An outline of the steps: as §2
Another data set relates to Escherichia coli MCR−1. The conditions noted are these: MCR−1. An outline of the steps: as §2
In another data set the test system is Escherichia coli ML35P. As to conditions: E. coli ML35P; broth microdilution; 3 independent experiments. An outline of the steps: as §2
On the technique in general: In broth dilution the organism is exposed to a series of concentrations in liquid medium.

The subject of another data set is A. baumanii 7985. An outline of the steps:
as §2

Another data set relates to K. pneumoniae 13825. An outline of the steps:
as §2

Another data set concerns MSSA (Newman). Description: microbe, parasite or virus in culture. The conditions noted are these: MSSA (Newman). The method, then:
(§3) For 15 d in MHB, MICs were determined daily for each pseudopeptide and their antibiotic controls. This was done using cells from the well in which the compound concentration was one-half of the MIC (1/2MIC). For each compound, the 1/2MIC well from the previous day’s MIC assay plate was re-suspended and the bacteria grown to a density of about 10^8 cells ml−1. The suspension was diluted in MHB or CAMHB (10^6 cells/ml) and then used to determine the MIC of the same compound determined by micro broth dilution. All MIC measurements were performed in duplicate. Aliquots of the 5 × 10^4 cell/ml dilutions for each 1/2MIC well were periodically plated on MHB and incubated at 35°C for 18 h to verify cell density by colony counts and for visual inspection of colony phenotypes. To control compound stability, peptide solution MICs were determined during and at the end of the 15 d and were compared to cells unexposed to antibiotics. In vivo resistance was also assessed in treated mice (1.5 mg.kg^−1) for 4 d (sepsis) or 6 d (skin abscesses). […] The broth microdilution method was performed as per EUCAST recommendations on 5 independent colonies per mouse (3 mice per set, 15 colonies per drug tested). For severe sepsis and subcutaneous abscesses, in vivo resistance was determined by plating aliquots of crude kidney extracts or abscesses on plates containing 1-, 2-, 4-, or 8-fold the peptide MICs 7 or 3 d post infections, respectively.

For another data set, the system named is E. coli K12. Description: microbe, parasite or virus in culture. How it is done:
as §3

Another data set has as its system E. coli 13090. Description: microbe, parasite or virus in culture. The method, then:
as §3

A further data set deals with P. aeruginosa 15643. The data set is described as follows: microbe, parasite or virus in culture. The method, then:
as §3

Another data set deals with MRSA (Mu3). Description: microbe, parasite or virus in culture. As to conditions: MRSA (Mu3). How it is done:
as §3

In another data set the test system is E. coli MCR1. The data set is described as follows: microbe, parasite or virus in culture. How it is done:
as §3

The subject of the next data set is MRSA. Description: Mild sepsis mouse model, survival. It is filed as in vivo. As to conditions: mice, approximately 5 × 10^8 MRSA IV; single IV 1.5 mg.kg^−1 at 3 h or 15 h post infection; 14 d. From the text: Tolerance and toxicity studies were done on male Swiss mice (CD-1 Crl: CD-1 [ICR] IGS; Charles River). These were 7 to 10 weeks old and weighed an average of 37.2 g. All experimental protocols were approved by the Adaptive Therapeutics Animal Care and Use Committee (APAFiS #4508-2016031l15541258 v2). For the sepsis model, we used female Swiss mice (Janvier Labs), 6 to 8 weeks old and weighing approximately 30 g. Experiments were monitored in the ARCHE-BIOSIT animal lab in Rennes, in biological duplicate. We used Groups of 5 mice for the mild and the severe sepsis models with MRSA. Mice were IV inoculated with 150 μl of MRSA suspensions in 0.9% NaCl containing approximately 5 × 10^8 CFUs for the “mild” sepsis and approximately 2 × 10^9 CFUs for the “severe” sepsis, respectively. […] Mice survival was monitored for 4 d (“severe” sepsis) or 14 d (“mild” sepsis), and the statistical significance of difference(s) between the groups was evaluated using the Wilcoxon test. P < 0.05 was considered significant. Two weeks (“mild” sepsis) or 4 d (“severe” sepsis) after inoculation, mice were euthanized with CO2.

Where [2] appears, read: d14 of serial passages at sub-MIC.
Where [3] appears, read: E. coli K12, d0 of serial passages.
Setting [4] is: E. coli K12, d14 of serial passages at sub-MIC.
Where [5] appears, read: E. coli 13090, d0 of serial passages.
[6] abbreviates: E. coli 13090, d14 of serial passages at sub-MIC.
[7] abbreviates: P. aeruginosa 15643, d0 of serial passages.
The mark [8] stands for this setting: P. aeruginosa 15643, d14 of serial passages at sub-MIC.
[9] abbreviates: E. coli MCR1, d0 of serial passages.
[10] abbreviates: E. coli MCR1, d14 of serial passages at sub-MIC.

Read-outs that look alike come from different tables or passages of the source. Starred links: 1 amine or outer side, 2 acyl side, 3 side chain; linkers in the order of their positions; H or OH if unused. Non-standard residues stand in square brackets, D forms with d. Residues, ends and D or L forms follow the SMILES beside them. azaβ3(1Nal) = O=C(CN(Cc1cccc2ccccc12)N[*:1])[*:2]

What is called half-life is how long it takes for the measured level to halve. `CC(C)[C@@H]1NC(=O)[C@H](CCCNC(=N)N)NC(=O)[C@H](CCCNC(=N)N)NC(=O)[C@H](Cc2c[nH]c3ccccc23)NC(=O)[C@H](Cc2ccccc2)NC(=O)[C@H](Cc2ccccc2)NC(=O)[C@H](CCCCN)NC1=O` [Pep18] (cyclo(FFWRRVK)): the MIC with S. aureus Mu3 (MRSA) is on record as 8 (8.2) μM; in the data set on S. aureus N315 (MRSA), 8 (8.2) μM; in the data set with S. aureus Newman it was 16 (16.4) μM; with Escherichia coli 146 it was 32 (32.8) μM; with Escherichia coli 066, 32 (32.8) μM; with Escherichia coli MCR−1, 32 (32.8) μM. The MIC with Escherichia coli ML35P is 16 (16.4) μM; in the data set with A. baumanii 7985, over 128 µM; with K. pneumoniae 13825 (K. pneumoniae 13825, clinical strain, Caen hemoculture, broth microdilution, 3 independent experiments) it was 16 (16.4) μM; with MSSA (Newman) (d0 of serial passages), 16 (16.4) μM; in the data set with MSSA (Newman) (setting [2]), 64 (65.6) μM; with E. coli K12 (setting [3]), 16 (16.4) μM. Besides, the MIC is 64 (65.6) μM against E. coli K12 (setting [4]); 16 (16.4) μM against E. coli 13090 (setting [5]); 64 (65.6) μM against E. coli 13090 (setting [6]); 16 (16.4) μM with P. aeruginosa 15643 (setting [7]); 16 (16.4) μM against P. aeruginosa 15643 (setting [8]); 16 (16.4) μM against MRSA (Mu3) (setting [2]). Moreover, the MIC was 16 (16.4) μM with E. coli MCR1 (setting [9]) and 64 (65.6) μM in the data set with E. coli MCR1 (setting [10]). Besides, the “Bactericidal activity in time-kill curves” value in the data set on S. aureus MRSA is reported as “higher bactericidal activities than vancomycin”. The half-life in [1] is 8.5 ± 2.5 h. Besides, in the data set with MRSA, the “Survival in mild sepsis” value was “no effect”.
Regarding `CC(C)[C@@H]1NC(=O)[C@H](CCCNC(=N)N)NC(=O)[C@H](CCCNC(=N)N)NC(=O)CN(Cc2cccc3ccccc23)NC(=O)[C@H](Cc2ccccc2)NC(=O)CN(Cc2cccc3ccccc23)NC(=O)[C@H](CCCCN)NC1=O` [Pep19] (cyclo([azaβ3(1Nal)]F[azaβ3(1Nal)]RRVK)), the MIC is 4 (4.5) μM in the data set on S. aureus Mu3 (MRSA); 4 (4.5) μM with S. aureus N315 (MRSA); 4 (4.5) μM in the data set on S. aureus Newman; 8 (9) μM in the data set on Escherichia coli 146; 8 (9) μM in the data set on Escherichia coli 066; 16 (18) μM in the data set on Escherichia coli MCR−1. The MIC in the data set on Escherichia coli ML35P is on record as 4 (4.5) μM; with A. baumanii 7985, 8 (9) μM; in the data set on K. pneumoniae 13825 (13825), 8 (9) μM; in the data set on MSSA (Newman) (d0 of serial passages), 4 (4.4) μM; in the data set with MSSA (Newman) (setting [2]), 4 (4.4) μM; in the data set on E. coli K12 (setting [3]), 4 (4.4) μM. In addition, the MIC is 8 (8.8) μM in the data set on E. coli K12 (setting [4]); 8 (8.8) μM with E. coli 13090 (setting [5]); 8 (8.8) μM in the data set with E. coli 13090 (setting [6]); 8 (8.8) μM against P. aeruginosa 15643 (setting [7]); 16 (16.2) μM in the data set on P. aeruginosa 15643 (setting [8]); 4 (4.4) μM in the data set on MRSA (Mu3) (d0 of serial passages). Besides, the MIC against MRSA (Mu3) (setting [2]), against E. coli MCR1 (setting [9]) and against E. coli MCR1 (setting [10]) was 8 (8.8) μM each time. In addition, the “Bactericidal activity in time-kill curves” value in the data set on S. aureus MRSA is reported as “higher bactericidal activities than vancomycin”. For the same molecule, the half-life in [1] turned out to be 9 ± 1.75 h. Also, the “Survival in mild sepsis” value in the data set with MRSA is given as “survived better than those without treatment”.

The values above are taken from PMC6615598, “Novel antibiotics effective against gram-positive and -negative multi-resistant bacteria with limited resistance” (PLoS Biology, 2019).
